Experiments:
Test in all cases: NCI-60 single-dose screen
Assay type in all cases: cell-based
SK-OV-3 = conditions: Homo sapiens, single dose 10 µM, '-' = no inhibition, read-out: % Growth Inhibition
Outline: (§1)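 Was run as a one-dose (10 μM) screen by the NCI Developmental Therapeutics Program, covering 60 tumour cell lines from nine cancer types including renal, melanoma and CNS.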

A498 = conditions: Homo sapiens, single dose 10 µM, '-' = no inhibition, read-out: % Growth Inhibition
Outline: as §1

SNB-75 = conditions: Homo sapiens, single dose 10 µM, '-' = no inhibition, read-out: % Growth Inhibition
Outline: as §1

SK-MEL-5 = conditions: Homo sapiens, single dose 10 µM, '-' = no inhibition, read-out: % Growth Inhibition
Outline: as §1

RPMI-8226 = conditions: Homo sapiens, single dose 10 µM, '-' = no inhibition, read-out: % Growth Inhibition
Outline: as §1

786-0 = conditions: Homo sapiens, single dose 10 µM, '-' = no inhibition, read-out: % Growth Inhibition
Outline: as §1

NCI-H522 = conditions: Homo sapiens, single dose 10 µM, '-' = no inhibition, read-out: % Growth Inhibition
Outline: as §1

MDA-MB-468 = conditions: Homo sapiens, single dose 10 µM, '-' = no inhibition, read-out: % Growth Inhibition
Outline: as §1

SK-MEL-28 = conditions: Homo sapiens, single dose 10 µM, '-' = no inhibition, read-out: % Growth Inhibition
Outline: as §1

HCT-116 = conditions: Homo sapiens, single dose 10 µM, '-' = no inhibition, read-out: % Growth Inhibition
Outline: as §1

MCF7 = conditions: Homo sapiens, single dose 10 µM, '-' = no inhibition, read-out: % Growth Inhibition
Outline: as §1

SW-620 = conditions: Homo sapiens, single dose 10 µM, '-' = no inhibition, read-out: % Growth Inhibition
Outline: as §1

SNB-19 = conditions: Homo sapiens, single dose 10 µM, '-' = no inhibition, read-out: % Growth Inhibition
Outline: as §1

SF-539 = conditions: Homo sapiens, single dose 10 µM, '-' = no inhibition, read-out: % Growth Inhibition
Outline: as §1

CAKI-1 = conditions: Homo sapiens, single dose 10 µM, '-' = no inhibition, read-out: % Growth Inhibition
Outline: as §1

M14 = conditions: Homo sapiens, single dose 10 µM, '-' = no inhibition, read-out: % Growth Inhibition
Outline: as §1

NCI-H460 = conditions: Homo sapiens, single dose 10 µM, '-' = no inhibition, read-out: % Growth Inhibition
Outline: as §1

MOLT-4 = conditions: Homo sapiens, single dose 10 µM, '-' = no inhibition, read-out: % Growth Inhibition
Outline: as §1

PC-3 = conditions: Homo sapiens, single dose 10 µM, '-' = no inhibition, read-out: % Growth Inhibition
Outline: as §1

T-47D = conditions: Homo sapiens, T47D, single dose 10 µM, '-' = no inhibition, read-out: % Growth Inhibition
Outline: as §1

HOP-92 = conditions: Homo sapiens, single dose 10 µM, '-' = no inhibition, read-out: % Growth Inhibition
Outline: as §1

KM12 = conditions: Homo sapiens, single dose 10 µM, '-' = no inhibition, read-out: % Growth Inhibition
Outline: as §1

HCT-15 = conditions: Homo sapiens, single dose 10 µM, '-' = no inhibition, read-out: % Growth Inhibition
Outline: as §1

SK-MEL-2 = conditions: Homo sapiens, single dose 10 µM, '-' = no inhibition, read-out: % Growth Inhibition
Outline: as §1

SF-295 = conditions: Homo sapiens, single dose 10 µM, '-' = no inhibition, read-out: % Growth Inhibition
Outline: as §1

HCC-2998 = conditions: Homo sapiens, single dose 10 µM, '-' = no inhibition, read-out: % Growth Inhibition
Outline: as §1

MALME-3M = conditions: Homo sapiens, single dose 10 µM, '-' = no inhibition, read-out: % Growth Inhibition
Outline: as §1

U251 = conditions: Homo sapiens, U-251, single dose 10 µM, '-' = no inhibition, read-out: % Growth Inhibition
Outline: as §1

CCRF-CEM = conditions: Homo sapiens, single dose 10 µM, '-' = no inhibition, read-out: % Growth Inhibition
Outline: as §1

BT-549 = conditions: Homo sapiens, single dose 10 µM, '-' = no inhibition, read-out: % Growth Inhibition
Outline: as §1

UO-31 = conditions: Homo sapiens, single dose 10 µM, '-' = no inhibition, read-out: % Growth Inhibition
Outline: as §1

ACHN 1 = conditions: Homo sapiens, single dose 10 µM, '-' = no inhibition, read-out: % Growth Inhibition
Outline: as §1

EKVX = conditions: Homo sapiens, single dose 10 µM, '-' = no inhibition, read-out: % Growth Inhibition
Outline: as §1

RXF 393 = conditions: Homo sapiens, single dose 10 µM, '-' = no inhibition, read-out: % Growth Inhibition
Outline: as §1

MDA-MB-435 = conditions: Homo sapiens, single dose 10 µM, '-' = no inhibition, read-out: % Growth Inhibition
Outline: as §1

A549/ATCC = conditions: Homo sapiens, single dose 10 µM, '-' = no inhibition, read-out: % Growth Inhibition
Outline: as §1

SF-268 = conditions: Homo sapiens, single dose 10 µM, '-' = no inhibition, read-out: % Growth Inhibition
Outline: as §1

HOP-62 = conditions: Homo sapiens, single dose 10 µM, '-' = no inhibition, read-out: % Growth Inhibition
Outline: as §1

SN12C = conditions: Homo sapiens, single dose 10 µM, '-' = no inhibition, read-out: % Growth Inhibition
Outline: as §1

NCI/ADR-RES = conditions: Homo sapiens, single dose 10 µM, '-' = no inhibition, read-out: % Growth Inhibition
Outline: as §1

OVCAR-3 = conditions: Homo sapiens, single dose 10 µM, '-' = no inhibition, read-out: % Growth Inhibition
Outline: as §1

IGROV1 = conditions: Homo sapiens, IGROV-1, single dose 10 µM, '-' = no inhibition, read-out: % Growth Inhibition
Outline: as §1

UACC-62 = conditions: Homo sapiens, single dose 10 µM, '-' = no inhibition, read-out: % Growth Inhibition
Outline: as §1

UACC-257 = conditions: Homo sapiens, single dose 10 µM, '-' = no inhibition, read-out: % Growth Inhibition
Outline: as §1

TK-10 = conditions: Homo sapiens, single dose 10 µM, '-' = no inhibition, read-out: % Growth Inhibition
Outline: as §1

OVCAR-5 = conditions: Homo sapiens, single dose 10 µM, '-' = no inhibition, read-out: % Growth Inhibition
Outline: as §1

HS 578T = conditions: Homo sapiens, single dose 10 µM, '-' = no inhibition, read-out: % Growth Inhibition
Outline: as §1

HT29 = conditions: Homo sapiens, HT-29, single dose 10 µM, '-' = no inhibition, read-out: % Growth Inhibition
Outline: as §1

`COc1ccc(-c2cc(-c3ccc(Cl)cc3)nc(SC)n2)cc1OC` [Compound 23, 4-(4-Chlorophenyl)-6-(3,4-dimethoxyphenyl)-2-(methylthio)pyrimidine] showed an inhibition at 10 µM (SK-OV-3) of 2.94%, an inhibition at 10 µM (A498) of under 0% and an inhibition at 10 µM (SNB-75) of under 0%. It also gave an inhibition at 10 µM (SK-MEL-5) of 24.5%, an inhibition at 10 µM (RPMI-8226) of 20.1% and an inhibition at 10 µM (786-0) of 6.05%. For the same compound, the inhibition at 10 µM (NCI-H522) was 31.2%, the inhibition at 10 µM (MDA-MB-468) was 6.77% and the inhibition at 10 µM (SK-MEL-28) was 8.87%. It also gave an inhibition at 10 µM (HCT-116) of 33.7%, an inhibition at 10 µM (MCF7) of 23.9% and an inhibition at 10 µM (SW-620) of 1.5%. For the same compound, the inhibition at 10 µM (SNB-19) was 3.67%, the inhibition at 10 µM (SF-539) was 15.7% and the inhibition at 10 µM (CAKI-1) was 24%. The inhibition at 10 µM (M14) was 0.3%, the inhibition at 10 µM (NCI-H460) was 11.4% and the inhibition at 10 µM (MOLT-4) was 26.7%. For the same compound, the inhibition at 10 µM (PC-3) was 15.7%, the inhibition at 10 µM (T-47D) was 25.5% and the inhibition at 10 µM (HOP-92) was under 0%. The inhibition at 10 µM (KM12) was 25.4%, the inhibition at 10 µM (HCT-15) was 28% and the inhibition at 10 µM (SK-MEL-2) was 8.95%. It also gave an inhibition at 10 µM (SF-295) of 12.4%, an inhibition at 10 µM (HCC-2998) of under 0% and an inhibition at 10 µM (MALME-3M) of under 0%. It also gave an inhibition at 10 µM (U251) of 11.6%, an inhibition at 10 µM (CCRF-CEM) of 17.9% and an inhibition at 10 µM (BT-549) of 4.8%. The inhibition at 10 µM (UO-31) was 22.9%, the inhibition at 10 µM (ACHN 1) was 9.14% and the inhibition at 10 µM (EKVX) was 23.1%. It also gave an inhibition at 10 µM (RXF 393) of under 0%, an inhibition at 10 µM (MDA-MB-435) of 18% and an inhibition at 10 µM (A549/ATCC) of 19.8%. The inhibition at 10 µM (SF-268) was 11.5%, the inhibition at 10 µM (HOP-62) was under 0% and the inhibition at 10 µM (SN12C) was 20.2%. It also gave an inhibition at 10 µM (NCI/ADR-RES) of 14.9%, an inhibition at 10 µM (OVCAR-3) of under 0% and an inhibition at 10 µM (IGROV1) of under 0%. For the same compound, the inhibition at 10 µM (UACC-62) was under 0%, the inhibition at 10 µM (UACC-257) was 10% and the inhibition at 10 µM (TK-10) was under 0%. It also gave an inhibition at 10 µM (OVCAR-5) of 11.9%, an inhibition at 10 µM (HS 578T) of 17% and an inhibition at 10 µM (HT29) of 26.4%.
